Columns and labels:
Assay type in all cases: in vivo
[1] = tested on: common ragweed (Ambrosia artemisiifolia L., AMBEL); assay: Post-emerge greenhouse herbicide test, phytotoxicity rating; conditions: 14 days after application; for phytotoxicity rating AMBEL: scale 0-100
Procedure, shortened: (§1)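 Compounds in acetone with 0.25% v/v non-ionic surfactant were track-sprayed at 187 l/ha over plants at the 2-3 leaf stage, at 63 to 1000 g ai/ha. Pots were bottom-watered. Injury was scored visually 14 days later on a 0-100 scale, where 0 is no damage and 100 is complete plant death.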

[2] = tested on: soybean (Glycine max L., var. Pella 86, SOY); assay: Pre-emerge greenhouse test, crop damage rating; set-up: key to SOY crop damage rating: 0 = no damage, 100 = complete death of all plants; conditions: 14 days after application, rating scale 0-100
Procedure, shortened: (§2)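 Seeds sown in sandy loam mix one day before track-sprayer application of compounds in acetone at 125–1000 g ai/ha (187 l/ha), then surface-watered to incorporate and bottom-watered. Visual rating 14 days after application on a 0–100 scale (0 = no damage, 100 = all plants dead).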

[3] = tested on: field corn (Zea mays L., var. Dekalb 535, CORN); assay: Post-emerge greenhouse test, crop damage rating; conditions: 14 days after application; for crop damage rating CORN: scale 0-100
Procedure, shortened: as §1

[4] = tested on: upland rice (Oryza sp., var.Tebonnet, RICE); assay: Post-emerge greenhouse test, crop damage rating; conditions: 14 days after application; for crop damage rating RICE: scale 0-100
Procedure, shortened: as §1

[5] = tested on: soybean (Glycine max L., var. Pella 86, SOY); assay: Post-emerge greenhouse test, crop damage rating; set-up: key to crop damage rating SOY: 0-100 scale: 0 = no damage, 100 = complete death of all plants; conditions: 14 days after application; for crop damage rating SOY: scale 0-100
Procedure, shortened: as §1

[6] = tested on: green foxtail (Setaria viridis, SETVI); assay: Post-emerge greenhouse herbicide test, phytotoxicity rating; conditions: 14 days after application; for phytotoxicity rating SETVI: scale 0-100
Procedure, shortened: as §1

[7] = tested on: velvetleaf (Abutilon theophrasti, ABUTH); assay: as above; conditions: 14 days after application; for phytotoxicity rating ABUTH: scale 0-100
Procedure, shortened: as §1

[8] = tested on: redroot pigweed (Amaranthus retroflexus, AMARE); assay: as above; conditions: 14 days after application; for phytotoxicity rating AMARE: scale 0-100
Procedure, shortened: as §1

[9] = tested on: ivyleaf morningglory (Ipomoea hederacea, IPOHE); assay: as above; conditions: 14 days after application; for phytotoxicity rating IPOHE: scale 0-100
Procedure, shortened: as §1

[10] = tested on: lambsquarters (Chenopodium album, CHEAL); assay: as above; conditions: 14 days after application; for phytotoxicity rating CHEAL: scale 0-100
Procedure, shortened: as §1

[11] = tested on: barnyardgrass (Echinochloa crusgalli, ECHCG); assay: as above; conditions: 14 days after application; for phytotoxicity rating ECHCG: scale 0-100
Procedure, shortened: as §1

[12] = tested on: Johnsongrass (Sorghum halepense, SORHA); assay: as above; conditions: 14 days after application; for phytotoxicity rating SORHA: scale 0-100
Procedure, shortened: as §1

[13] = tested on: large crabgrass (Digitaria sanguinalis, DIGSA); assay: as above; conditions: 14 days after application; for phytotoxicity rating DIGSA: scale 0-100
Procedure, shortened: as §1

[14] = tested on: sicklepod (Cassia obtusifolia, CASOB); assay: as above; conditions: 14 days after application; for phytotoxicity rating CASOB: scale 0-100
Procedure, shortened: as §1

[15] = tested on: green foxtail (Setaria viridis, SETVI); assay: Pre-emerge greenhouse herbicide test, phytotoxicity rating; conditions: 14 days after application, rating scale 0-100
Procedure, shortened: as §2

[16] = tested on: velvetleaf (Abutilon theophrasti, ABUTH); assay: as above; conditions: 14 days after application, rating scale 0-100
Procedure, shortened: as §2

[17] = tested on: redroot pigweed (Amaranthus retroflexus, AMARE); assay: as above; conditions: 14 days after application, rating scale 0-100
Procedure, shortened: as §2

[18] = tested on: ivyleaf morningglory (Ipomoea hederacea, IPOHE); assay: as above; conditions: 14 days after application, rating scale 0-100
Procedure, shortened: as §2

[19] = tested on: lambsquarters (Chenopodium album, CHEAL); assay: as above; conditions: 14 days after application, rating scale 0-100
Procedure, shortened: as §2

[20] = tested on: barnyardgrass (Echinochloa crusgalli, ECHCG); assay: as above; conditions: 14 days after application, rating scale 0-100
Procedure, shortened: as §2

[21] = tested on: common ragweed (Ambrosia artemisiifolia L., AMBEL); assay: as above; conditions: 14 days after application, rating scale 0-100
Procedure, shortened: as §2

[22] = tested on: Johnsongrass (Sorghum halepense, SORHA); assay: as above; conditions: 14 days after application, rating scale 0-100
Procedure, shortened: as §2

[23] = tested on: large crabgrass (Digitaria sanguinalis, DIGSA); assay: as above; conditions: 14 days after application, rating scale 0-100
Procedure, shortened: as §2

[24] = tested on: sicklepod (Cassia obtusifolia, CASOB); assay: as above; conditions: 14 days after application, rating scale 0-100
Procedure, shortened: as §2

[25] = tested on: field corn (Zea mays L., var. Dekalb 535, CORN); assay: Pre-emerge greenhouse test, crop damage rating; conditions: 14 days after application, rating scale 0-100
Procedure, shortened: as §2

[26] = tested on: upland rice (Oryza sp., var.Tebonnet, RICE); assay: Pre-emerge greenhouse test, crop damage rating; conditions: 14 days after application, rating scale 0-100
Procedure, shortened: as §2

O=c1n(-c2cc(Oc3ccccc3[N+](=O)[O-])c(Cl)cc2F)c(=S)n2n1CCCC2 [Compound 8-6]
AMBEL phytotoxicity rating (0-100) ([1]; 63 g al/ha): 60 | AMBEL phytotoxicity rating (0-100) ([1]; 500 g al/ha): 90 | crop damage rating SOY ([2]; 125 g ai/ha): 20 | crop damage rating SOY ([2]; 500 g ai/ha): 40 | CORN crop damage rating (0-100) ([3]; 63 g al/ha): 5 | CORN crop damage rating (0-100) ([3]; 500 g al/ha): 20 | RICE crop damage rating (0-100) ([4]; 63 g al/ha): 5 | RICE crop damage rating (0-100) ([4]; 500 g al/ha): 50 | SOY crop damage rating (0-100) ([5]; 63 g al/ha): 70 | SOY crop damage rating (0-100) ([5]; 500 g al/ha): 90 | SETVI phytotoxicity rating (0-100) ([6]; 63 g al/ha): 30 | SETVI phytotoxicity rating (0-100) ([6]; 500 g al/ha): 90 | ABUTH phytotoxicity rating (0-100) ([7]; 63 g al/ha): 100 | ABUTH phytotoxicity rating (0-100) ([7]; 500 g al/ha): 100 | AMARE phytotoxicity rating (0-100) ([8]; 63 g al/ha): 100 | AMARE phytotoxicity rating (0-100) ([8]; 500 g al/ha): 100 | IPOHE phytotoxicity rating (0-100) ([9]; 63 g al/ha): 90 | IPOHE phytotoxicity rating (0-100) ([9]; 500 g al/ha): 100 | CHEAL phytotoxicity rating (0-100) ([10]; 63 g al/ha): 90 | CHEAL phytotoxicity rating (0-100) ([10]; 500 g al/ha): 99 | ECHCG phytotoxicity rating (0-100) ([11]; 63 g al/ha): 10 | ECHCG phytotoxicity rating (0-100) ([11]; 500 g al/ha): 30 | SORHA phytotoxicity rating (0-100) ([12]; 63 g al/ha): 0 | SORHA phytotoxicity rating (0-100) ([12]; 500 g al/ha): 30 | DIGSA phytotoxicity rating (0-100) ([13]; 63 g al/ha): 0 | DIGSA phytotoxicity rating (0-100) ([13]; 500 g al/ha): 30 | CASOB phytotoxicity rating (0-100) ([14]; 63 g al/ha): 60 | CASOB phytotoxicity rating (0-100) ([14]; 500 g al/ha): 100 | phytotoxicity rating SETVI ([15]; 125 g ai/ha): 95 | phytotoxicity rating SETVI ([15]; 500 g ai/ha): 100 | phytotoxicity rating ABUTH ([16]; 125 g ai/ha): 100 | phytotoxicity rating ABUTH ([16]; 500 g ai/ha): 100 | phytotoxicity rating AMARE ([17]; 125 g ai/ha): 100 | phytotoxicity rating AMARE ([17]; 500 g ai/ha): 100 | phytotoxicity rating IPOHE ([18]; 125 g ai/ha): 50 | phytotoxicity rating IPOHE ([18]; 500 g ai/ha): 90 | phytotoxicity rating CHEAL ([19]; 125 g ai/ha): 100 | phytotoxicity rating CHEAL ([19]; 500 g ai/ha): 100 | phytotoxicity rating ECHCG ([20]; 125 g ai/ha): 20 | phytotoxicity rating ECHCG ([20]; 500 g ai/ha): 50 | phytotoxicity rating AMBEL ([21]; 125 g ai/ha): 40 | phytotoxicity rating AMBEL ([21]; 500 g ai/ha): 100 | phytotoxicity rating SORHA ([22]; 125 g ai/ha): 20 | phytotoxicity rating SORHA ([22]; 500 g ai/ha): 50 | phytotoxicity rating DIGSA ([23]; 125 g ai/ha): 40 | phytotoxicity rating DIGSA ([23]; 500 g ai/ha): 100 | phytotoxicity rating CASOB ([24]; 125 g ai/ha): 100 | phytotoxicity rating CASOB ([24]; 500 g ai/ha): 95 | crop damage rating CORN ([25]; 125 g ai/ha): 0 | crop damage rating CORN ([25]; 500 g ai/ha): 0 | crop damage rating RICE ([26]; 125 g ai/ha): 10 | crop damage rating RICE ([26]; 500 g ai/ha): 40

Nc1cccnc1Oc1cc(-n2c(=O)n3n(c2=S)CCCC3)c(F)cc1Cl [Compound 8-42]
phytotoxicity rating AMBEL ([1]; rate 63 g ai/ha): 40 | phytotoxicity rating AMBEL ([1]; rate 250 g ai/ha): 90 | SOY crop damage rating ([2]; Rate 125 g al/ha): 0 | SOY crop damage rating ([2]; Rate 250 g al/ha): 20 | crop damage rating CORN ([3]; rate 63 g ai/ha): 0 | crop damage rating CORN ([3]; rate 250 g ai/ha): 0 | crop damage rating RICE ([4]; rate 63 g ai/ha): 0 | crop damage rating RICE ([4]; rate 250 g ai/ha): 0 | crop damage rating SOY ([5]; rate 63 g ai/ha): 20 | crop damage rating SOY ([5]; rate 250 g ai/ha): 60 | phytotoxicity rating SETVI ([6]; rate 63 g ai/ha): 0 | phytotoxicity rating SETVI ([6]; rate 250 g ai/ha): 0 | phytotoxicity rating ABUTH ([7]; rate 63 g ai/ha): 100 | phytotoxicity rating ABUTH ([7]; rate 250 g ai/ha): 100 | phytotoxicity rating AMARE ([8]; rate 63 g ai/ha): 50 | phytotoxicity rating AMARE ([8]; rate 250 g ai/ha): 95 | phytotoxicity rating IPOHE ([9]; rate 63 g ai/ha): 60 | phytotoxicity rating IPOHE ([9]; rate 250 g ai/ha): 70 | phytotoxicity rating CHEAL ([10]; rate 63 g ai/ha): 50 | phytotoxicity rating CHEAL ([10]; rate 250 g ai/ha): 80 | phytotoxicity rating ECHCG ([11]; rate 63 g ai/ha): 0 | phytotoxicity rating ECHCG ([11]; rate 250 g ai/ha): 0 | phytotoxicity rating SORHA ([12]; rate 63 g ai/ha): 0 | phytotoxicity rating SORHA ([12]; rate 250 g ai/ha): 0 | phytotoxicity rating DIGSA ([13]; rate 63 g ai/ha): 0 | phytotoxicity rating DIGSA ([13]; rate 250 g ai/ha): 0 | phytotoxicity rating CASOB ([14]; rate 63 g ai/ha): 0 | phytotoxicity rating CASOB ([14]; rate 250 g ai/ha): 0 | SETVI phytotoxicity rating ([15]; Rate 125 g al/ha): 0 | SETVI phytotoxicity rating ([15]; Rate 250 g al/ha): 0 | ABUTH phytotoxicity rating ([16]; Rate 125 g al/ha): 100 | ABUTH phytotoxicity rating ([16]; Rate 250 g al/ha): 100 | AMARE phytotoxicity rating ([17]; Rate 125 g al/ha): 100 | AMARE phytotoxicity rating ([17]; Rate 250 g al/ha): 100 | IPOHE phytotoxicity rating ([18]; Rate 125 g al/ha): 30 | IPOHE phytotoxicity rating ([18]; Rate 250 g al/ha): 50 | CHEAL phytotoxicity rating ([19]; Rate 125 g al/ha): 80 | CHEAL phytotoxicity rating ([19]; Rate 250 g al/ha): 100 | ECHCG phytotoxicity rating ([20]; Rate 125 g al/ha): 0 | ECHCG phytotoxicity rating ([20]; Rate 250 g al/ha): 0 | AMBEL phytotoxicity rating ([21]; Rate 125 g al/ha): 0 | AMBEL phytotoxicity rating ([21]; Rate 250 g al/ha): 30 | SORHA phytotoxicity rating ([22]; Rate 125 g al/ha): 0 | SORHA phytotoxicity rating ([22]; Rate 250 g al/ha): 0i | DIGSA phytotoxicity rating ([23]; Rate 125 g al/ha): 0 | DIGSA phytotoxicity rating ([23]; Rate 250 g al/ha): 0 | CASOB phytotoxicity rating ([24]; Rate 125 g al/ha): 100 | CASOB phytotoxicity rating ([24]; Rate 250 g al/ha): 80 | CORN crop damage rating ([25]; Rate 125 g al/ha): 0 | CORN crop damage rating ([25]; Rate 250 g al/ha): 0 | RICE crop damage rating ([26]; Rate 125 g al/ha): 0 | RICE crop damage rating ([26]; Rate 250 g al/ha): 0

Source: patent US6479435B1, “Diaryl ethers and processes for their preparation and herbicidal and desiccant compositions containing them” (ISK Americas Incorporated, priority 1997, dated 2002)
